Reference: US20050261319A1, “Novel 2-amino-4-quinazolinones and 2-amino-4-oxoquinazolones as LXR nuclear receptor binding compounds with partial agonistic properties” (priority 2002, published 2005)

Columns and labels:
[1] = molecular target: T1, Gal4DBD-LXRb (Homo sapiens, UniProt P55055); test: pFR-luc reporter transactivation in CHO cells, Gal4DBD-LXRb; type: cell-based; settings: 16 h, 0.032 to 50 uM
T1 construct: expressed in transfected cells; host or cells: CHO
T1 sequence (P55055 222-460 limits assumed): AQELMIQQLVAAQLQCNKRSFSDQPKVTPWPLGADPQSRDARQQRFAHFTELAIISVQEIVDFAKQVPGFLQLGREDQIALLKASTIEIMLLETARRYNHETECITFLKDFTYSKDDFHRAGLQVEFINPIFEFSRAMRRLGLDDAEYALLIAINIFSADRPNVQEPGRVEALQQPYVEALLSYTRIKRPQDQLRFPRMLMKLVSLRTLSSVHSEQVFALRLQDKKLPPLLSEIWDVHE
Experimental: (§1) CHO cells (1×10^5 cells 96 well plate) were co-transfected (Lipofectamine 2000 GIBCO) with pFR-luc (Stratagene) as a reporter gene construct and pCMV-AD derivatives containing the LXRa or LXRb ligand binding domains, which were cloned via the gateway system (GIBCO) described in Example 1, in order to express Gal4DBD-LXRa or Gal4DBD-LXRb fusion proteins.
(§2) Cells were grown in DMEM containing 10% FCS at 37° C. in 5% humidified CO2 for 16 h in presence of 0.05% DMSO vehicle or 0.032 to 50 uM LN0000006500 in vehicle (as indicated in FIG. 9). Luciferase activity was determined from aliquots of extracts prepared from cells following standard luciferase assay kits and protocols from Promega.

[2] = tested on: HepG2 liver cells; test: Triglyceride assay in HepG2 cells; type: cell-based; settings: 24 h, 25 pM
Experimental: Methods: Cultures of the monocyte-macrophage cell line and the hepatocytes HepG2 are obtained from the American Type tissue Culture Collection, Rockville, Md. and were grown in RPMI 1640 medium supplemented with 10% fetal bovine serum, 10 mM HEPES, 2 mM pyruvate, 50 uM (3-Mercaptoethanol (THP-1) and Minimum essential medium (Eagle) with 2 mM L-glutamine and Earle's BSS supplemented with 10% fetal bovine serum, 2 mM glutamin, 0.1 mM non-essential amino acids, 1 mM sodium pyruvate (HepG2), respectively, at 37° C. in 5% CO2.
For cholesterol efflux measurements and triglyceride analysis cells are seeded in 6 well plates at 1.8×10^6 cells (THP-1) and 1×10^6 cells (HepG2) per well, respectively.
TRIGLYCERIDE ASSAY HepG2 cells are seeded in poly-L-Lysine coated 6 well plates at 1×10^6 cells per well in EMEM medium containing 10% FCS until they were appr. 60% confluent. Before treatment with LXR compounds growth medium is changed to medium containing 10% charcoal/dextran-stripped FCS for 12 h. Treatment is done for 24 h in medium containing 10% charcoal/dextran-stripped FCS. Cells are washed twice with ice-cold PBS/0.2% BSA and twice with cold PBS and all liquid carefully removed. Triglyceride are extracted with 1.5 ml hexane/isopropanol=3: 2 per well with gentle shaking for 2-3 h at RT according to Pan et al. (2002) JBC277, 4413-4421 and Goti et al. (1998) Biochem J, 332, 57-65. The extraction solution is collected, dried under vacuum and redissolved in isopropanol/1.5% triton. The remaining cellular proteins are lysed with 0.3 N NaOH and protein content measured with the Biorad Bradford reagent.
Triglyceride levels are measured as esterified glycerol using a commercial enzymatic colorimetric kit (Sigma 343-25P). In a preliminary assay it is checked by omitting the lipase enzyme that contribution of free glycerol is negligible.

[3] = tested on: THP-1 macrophages; test: Cholesterol efflux from differentiated THP-1 macrophages; type: cell-based; settings: ApoA1, 10 uM, 24 h
Experimental: Methods: Cultures of the monocyte-macrophage cell line and the hepatocytes HepG2 are obtained from the American Type tissue Culture Collection, Rockville, Md. and were grown in RPMI 1640 medium supplemented with 10% fetal bovine serum, 10 mM HEPES, 2 mM pyruvate, 50 uM (3-Mercaptoethanol (THP-1) and Minimum essential medium (Eagle) with 2 mM L-glutamine and Earle's BSS supplemented with 10% fetal bovine serum, 2 mM glutamin, 0.1 mM non-essential amino acids, 1 mM sodium pyruvate (HepG2), respectively, at 37° C. in 5% CO2. THP-1 cells are differentiated into macrophages by addition of 100 nM Phorbol 12-Myristate 13-Acetate (PMA; Sigma P8139) and PMA included in the medium of all subsequent experiments to maintain differentiation. For cholesterol efflux measurements and triglyceride analysis cells are seeded in 6 well plates at 1.8×10^6 cells (THP-1) and 1×10^6 cells (HepG2) per well, respectively. CHOLESTEROL EFFLUX THP-1 cells are seeded in 6 well plates at 1×10^6 cells per well in RPMI 1640 medium containing 10% FCS and 100 nM TPA for 72 h. After washing with PBS cells are incubated 24 h with fresh in RPMI 1640 medium containing 10% FCS and 100 nM TPA. […] Medium is collected, centrifuged to remove cell debris and assayed for cholesterol using a commercial fluorometric kit (Molecular Probes A-12216). The remaining cellular proteins are lysed with 0.3 NNaOH and protein content measured with the Biorad Bradford reagent. THP-1 (1×10^6 cells per dish) cells were seeded in 6 well dishes in 3 ml modified RPMI 1640 medium (ATTC, Cat. […] After incubation for 24 hours, total cholesterol was determined from cell supernatant in each of the wells using an enzymatic assay with fluorescence read-out for the determination of cholesterol (Amplex Red Cholesterol Assay Kit (A-12213). The fluorescence readout per mg of total protein content as determined from cells that were present in the respective well are shown in FIGS. 9 or 11 as an example.

[4] = molecular target: T2, Gal4DBD-LXRa (Homo sapiens, UniProt Q13133); test: pFR-luc reporter transactivation in CHO cells, Gal4DBD-LXRa; type: cell-based; settings: 16 h, 0.032 to 50 uM
T2 construct: expressed in transfected cells; host or cells: CHO
T2 sequence (Q13133 209-447 limits assumed): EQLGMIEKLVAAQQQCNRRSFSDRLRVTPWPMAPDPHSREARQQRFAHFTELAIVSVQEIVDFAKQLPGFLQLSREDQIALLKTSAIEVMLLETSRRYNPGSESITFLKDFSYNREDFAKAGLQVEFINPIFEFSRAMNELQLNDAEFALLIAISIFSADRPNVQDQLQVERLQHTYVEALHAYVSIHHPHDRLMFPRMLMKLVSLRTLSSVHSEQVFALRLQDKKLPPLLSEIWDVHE
Experimental: as §1, §2

[5] = molecular target: T3, human LXRalpha LBD (Homo sapiens, UniProt Q13133, A196R); test: In vitro screening for LXR binding to coactivator Tif2 (LANCE TR-FRET); type: biochemical
T3 construct: from amino acids 155 of hLXRalpha to 447; made in house; host or cells: SF9 insect cells (baculovirus) for LXRalpha LBD; E. coli BL21 for Tif2 fragment
T3 sequence (Q13133 155-447 A196R): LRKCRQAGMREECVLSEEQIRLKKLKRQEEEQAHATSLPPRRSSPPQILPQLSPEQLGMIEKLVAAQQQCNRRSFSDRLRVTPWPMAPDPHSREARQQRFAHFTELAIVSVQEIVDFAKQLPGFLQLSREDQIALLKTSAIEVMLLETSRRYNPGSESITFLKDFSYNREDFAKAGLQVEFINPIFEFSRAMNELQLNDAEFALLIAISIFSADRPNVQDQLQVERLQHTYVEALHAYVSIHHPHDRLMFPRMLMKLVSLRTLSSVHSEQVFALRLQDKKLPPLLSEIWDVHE
T3 sequence (Q15596 548-878 partner limits assumed): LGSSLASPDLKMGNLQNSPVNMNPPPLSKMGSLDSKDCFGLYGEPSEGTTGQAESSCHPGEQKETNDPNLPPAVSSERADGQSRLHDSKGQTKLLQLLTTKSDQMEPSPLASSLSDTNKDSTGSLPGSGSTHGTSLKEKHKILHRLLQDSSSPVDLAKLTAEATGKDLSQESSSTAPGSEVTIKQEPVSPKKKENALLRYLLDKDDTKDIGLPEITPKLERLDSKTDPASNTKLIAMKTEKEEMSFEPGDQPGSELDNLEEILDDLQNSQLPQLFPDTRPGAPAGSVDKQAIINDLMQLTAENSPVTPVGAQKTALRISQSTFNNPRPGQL
From the text: For screening purposes a GST and 6× His fusion of the LBD (from amino acids 155 of hLXRalpha to 447) of human LXRalpha was constructed by first cloning a Gateway cassette (Invitrogen) in frame into the Sma I site of the pAGGHLT Polylinker (Pharmingen). Then a PCR fragment specifically amplified from human liver cDNA was cloned into the resulting pACGHLT-GW following the manufacturers instructions for Gateway cloning (Invitrogen) to yield pACGHLT-GW-hLXRalphaLBD.
100% sequence integrity of all recombinant products was verified by sequencing. Recombinant Baculovirus was constructed from pACGHLT-GW-hLXRalphaLBD using the Pharmingen Baculovirus Expression vector system according to instructions of the manufacturer. Monolayer cultures of SF9 cells were infected by the virus as recommended by Pharmingen or 200 ml cultures of 1×10^6 cells/ml grown in 2 liter Erlenmeyer flasks on an orbital shaker at 30 rpm were infected by 10 ml of same virus stock. In both cases cells were harvested 3 days after infection. All cell growth was performed in Gibco SF900 II with Glutamine (Invitrogen) medium without serum supplementation at 28° C. Since SF9 cells contain significant amounts of endogenous 30 GST, purification was performed via His and not via GST affinity chromatography.
To this end instructions of Pharmingen for purification of recombinant His tagged proteins from SF9 cells were followed with the following modifications: All detergents were omitted from the buffers and cells were lysed on ice by 5 subsequent sonication pulses using a sonicator needle at maximum power.
All eluates were dialyzed against 20 mM Tris/HCl pH 6.8, 300 mM KCl; 5 mM MgCl2;1 mM DTT; 0.2 mM PMSF; 10% Glycerol. A typical dialyzed eluate fraction contained the fusion protein at a purity of more than 80%. Total protein concentration was 0.1-0.3 mg/ml.
For E. coli expression of a NR coactivator, pDest17-hTif2BD expressing an NR interaction domain from amino acids 548-878 of human Tif2 (Acc. No: XM011633 Ref Seq) tagged by 6 N-terminal His residues was constructed. Therefore, a PCR fragment specifically amplified from human liver cDNA was subcloned into pDest 17 (Invitrogen) following the manufacturers instructions for Gateway cloning (Invitrogen). Primers used for Amplification were: […]
For E. coli expression plasmid DNA was transformed into chemically competent E. coli BL21 (Invitrogen, USA) and cells were grown to an OD600 of 0.4-0.7 before expression was induced by addition of 0.5 mM IPTG according instructions of the manufacturer (Invitrogen). After induction for 8 hours at 30° C. cells were harvested by centrifugation for 10 minutes at 5000×g. Fusion proteins were affinity purified using Ni—NTA Agarose (QIAGEN) according to the instructions of the manufacturer.
Recombinant Tif2 construct was dialyzed against 20 mM Tris/HCL pH 7.9; 60 mM KCl; 5 mM MgCl2; 1 mM DTT, 0.2 mM PMSF; 10% glycerol. A typical dialyzed eluate fraction contained the fusion protein at a purity of more than 80%. Total protein concentration was 0.1-0.3 mg/ml.
The TIF2 fragment was subsequently biotinylated by addition of 5-40 ul/ml Tif2 fraction of a Biotinamidocaproate N-Hydroxysuccinimide-ester (Sigma) solution (20 mg/ml in DMSO). Overhead rotating samples were incubated for 2 hours at room temperature. Unincorporated label was then separated using G25 Gel filtration chromatography (Pharmacia Biotech, Sweden). Protein containing fractions from the column were pooled and tested for activity in the assay as described below.
For screening of compound libraries as provided for by the methods shown below in the examples for substances which influence the LXR/Tif 2 interaction, the PerkinElmer LANCE technology is applied. This method relies on the binding dependent energy transfer from a donor to an acceptor fluorophore attached to the binding partners of interest. […]

O=S(=O)(c1ccccc1)N(CC(F)(F)F)c1ccc(C(O)(C(F)(F)F)C(F)(F)F)cc1 [T0901317, reference compound]
transactivation of the pFR-luc reporter gene via Gal4 LBD-fusion construct derived from LXRb [1]: can selectively enhance transcription
triglyceride mass [2]: marked increase
cholesterol export [3]: marked increase
transactivation of the pFR-luc reporter gene via Gal4 LBD-fusion construct derived from LXRa [4]: can selectively enhance transcription

C=CCn1c(N2CC3(C)CC2CC(C)(C)C3)nc2ccccc2c1=O (stereo not drawn) [formula (4)]
EC50 ([5]; FRET assay, read-out: EC50 at LXR (half-maximal effective concentration)): 500 nM

CC(C)n1c(N2CC3(C)CC2CC(C)(C)C3)nc2ccc(Br)cc2c1=O (stereo not drawn) [formula (6)]
active as agonist / partial agonist of the LXR human nuclear receptor [5]: active as agonist
